pIC50: −log10 of the molar value.
Key:
[1] = tested on: SUM159; test: Broad cell line profiling, SUM159; assay type: cell-based; conditions: Homo sapiens; SUM159, Breast Adenocarcinoma; read-out: PA IC50
Source text: (§1) • A panel of human and mouse cancer cell types used to assess the breadth of PA activity, including multiple therapy resistant metastatic mesenchymal tumor cell lines and primary glioblastoma patient-derived metastatic stem/tumor initiating cell populations.

[2] = tested on: LN229; test: Broad cell line profiling, LN229; assay type: cell-based; conditions: Homo sapiens, LN-229; LN229, Glioblastoma; read-out: PA IC50
Source text: as §1

[3] = tested on: Jurkat; test: Broad cell line profiling, Jurkat; assay type: cell-based; conditions: Human Leukemia, read-out: PA IC50
Source text: as §1

[4] = tested on: LNCaP; test: Broad cell line profiling, LNCaP; assay type: cell-based; conditions: Homo sapiens, Prostate Carcinoma, read-out: PA IC50
Source text: as §1

[5] = tested on: p53; test: p53 protein level in Jurkat cells; assay type: cell-based, human
Experimental: (§2) FIG. 7. Portimine A targets NMD3 and prevents polysome formation. […] (A) Immunoblot showing reduced NMD3 levels in shNMD3 Jurkat and HeLa cells. […] Jurkat cells were treated with 12.5 nM of PA for 12 or 24 hours. Jurkat and HeLa cells were treated with 5 nM or 150 nM of PA for 24 hours. Data represents mean±SD of biologically replicated experiments (n=3). […] Cell lysates were fractionated by sucrose gradient (5-50%) and each fraction were analyzed by western blot. eIF6 levels increase in 60S subunit fraction and decrease in ribosome-free fractions after PA treatment. RPS6, a 40S and polysome subunits marker, is decreased in polysome fractions after PA treatment. Results are representative of three independent experiments. […] Relative protein levels in each fraction were normalized to the peak fraction of the indicated protein from the DMSO cells and plotted. Data represents mean±SD of biologically replicated experiments (n=3). Statistical analysis was performed using multiple unpaired Student t-test. * p≤0.05; ** p≤0.01; *** p≤0.005; **** p≤0.0001. Treatment condition: Jurkat (5 M per condition); Incubate cells (1 M/mL) with inhibitors for 6 hr, 12 hr and 24 hr, respectively.
(§3) • 1) Portimine A and its functional analogs show stereo-selective acute toxicity in cancer cells (FIG. 1). […] (B) Structure of portimine related analogs: phenyl-portimine A (Ph-PA, 36) and epi-portimine A (ePA, 38). […]

[6] = tested on: HepG2; test: Broad cell line profiling, HepG2; assay type: cell-based; conditions: Homo sapiens; HepG2, Hepatocellular Carcinoma; read-out: PA IC50
Source text: as §1

[7] = tested on: shNMD3 Jurkat and HeLa cells; test: Toxicity in NMD3 knock-down (shNMD3) cells; assay type: cell-based, human; conditions: Jurkat 12.5 nM 12 or 24 hours; Jurkat and HeLa 5 nM or 150 nM 24 hours
Experimental: as §2, §3

How did the pIC50 [1] turn out when C=CC1=C[C@@H]2[C@@H]3O[C@]4(CC[C@H](O4)C(C)C[C@@H](O)C3=O)CC(O)C3=NCC[C@@]32CC1 (stereo partly shown) [PA, portimine A] was run?
The pIC50 was 8.72.

And the pIC50 [2]?
The pIC50 was 8.96.

What about the pIC50 [3] of the same molecule?
The pIC50 was 9.25.

And the pIC50 [4]?
The pIC50 was 8.77.

And the p53 level [5]?
The p53 level was “downregulated”.

What about the pIC50 [6] of the same molecule?
Its pIC50 is 8.32.

What about the “toxic effects in shNMD3 compared to shCtrl cells” value [7] of the same molecule?
The value was “less toxic effects”.
